Earlier results as cited in patent US20160330969A1, “ANTIMICROBIAL COMPOSITIONS AND ARTICLES” (priority 2013, published 2016).

Conditions: decomposition to chlorite and chlorate species, pH 5-8 region

- pH of maximum rate of decomposition: 6.89
SMILES: OCl [HOCl, hypochlorous acid]
